Reference: US8193175B2, “Ruthenium complexes for treating cancers” (Universite de Strasbourg, priority 2004, dated 2012)

What was measured:
[1] = test system: TK6 and NH32 lines; experiment: Compared proliferation of lines TK6 and NH32; type: cell-based, human
Protocol: The influence of the p53 protein upon the effects induced by the products was determined by using the human lymphoblastoid line TK6 (p53 wild-type) and its NH32 variant of which the p53 gene was totally inactivated by double homologous recombination (Chuang et al, 1999). The TK6 cells originate from the American Tissue Culture Collection (ATGC, Manassas, Va., USA). The NH32 cells were supplied by H. L. Liber (Chuang et al, 1999).
(§1) All of these cells are cultivated in RPMI 1640-Glutamax, supplemented by 10% calf foetal serum heat inactivated at 56° C. for 30 minutes, 1 mM sodium pyruvate, 1 mM non-essential amino acids and 50 μg/mL gentamycine (Life Technologies, Cergy Pontoise, France). The cultures are kept in an incubator at 37° C. with a moisture saturated atmosphere, with 5% CO2.
This test uses the UptiBlue reagent (Interchim, Montluçon, France), metabolised by the living cells. The cells are incubated on plates with 96 wells with 10^4 cells/well (200 μL) with the product and cultivated for 72 hours. Then, 20 μL UptiBlue are added to each well. After 3 hours incubation, the fluorescence of the samples contained in the plates is measured at 590 nm (excitation at 560 nm), using a Fluorolite 1000 microplate reader (Dynex technologies, Issy-Les-Moulineaux, France). […]

[2] = test system: HL-60; experiment: Proliferation test (UptiBlue) on HL-60; type: cell-based, human
Protocol: The products are tested on different cell lines. The cells used are RDM4 from a murine T lymphoma and a MOLT-4 line originating from an acute lymphoblastic leukemia. These cancer lines both express the p53 protein, unlike the HL-60 cells from a human promyelocytary leukemia where, following deletion of its gene, p53 is absent.
as §1
This test uses the UptiBlue reagent (Interchim, Montluçon, France), metabolised by the living cells. The cells are incubated on plates with 96 wells with 10^4 cells/well (200 μL) with the product and cultivated for 72 hours. Then, 20 μL UptiBlue are added to each well. After 3 hours incubation, the fluorescence of the samples contained in the plates is measured at 590 nm (excitation at 560 nm), using a Fluorolite 1000 microplate reader (Dynex technologies, Issy-Les-Moulineaux, France).
This sensitivity is reversed with the Ru complex. […] These latter, which have a normal p53 gene, are less sensitive to the Ru complex. […]

[3] = test system: A172 glioblastoma cells; experiment: Nucleus morphology and caspase 3 activation in A172 cells; type: cell-based, human; conditions: cisplatinum 15 μM, CDR6 15 μM, CDR9 15 μM
Excerpt: FIG. 2: A—The A172 cells were cultivated on glass slides. […] The cells were then fixed in 4% paraformaldehyde, permeabilised with 0.1% NP40 and marked with Hoechst dye (blue) and the anti-p20 antibody (active fragment of caspase 3, in red). The cells were then observed under the fluorescence microscope. B—Graphic representation of the number of cells with an apoptotic, fragmented or condensed nucleus. The bars are an average of two slides from one experiment representative of 3 carried out. C—In parallel, proteic extracts were prepared from cells treated with various drugs (cisplatinum 15 μM; CDR225 μM; CDR615 μM; CDR915 μM) and following denaturation the extracts were deposited on a !0% SDS-Page gel. After migration, the proteins were transferred onto nitrocellulose (Biorad, 0.2 μm) and the p20 fragment of the caspase 3 was detected by Western blot with an anti-p20 antibody (1/1000, R&D System).
The first step towards characterising the anticancerous effects of the compounds derived from ruthenium consists of testing their activity on tumoral lines kept in culture and comparing these effects on lines which have different characteristics as regards resistance to the anticancer treatments. Two lines of human glioblastomas (A172, HS683) and two lines of neuroblastomas (N2A and SH5Y) were used in order to test the cytostatic effects of the compounds according to the invention. Cisplatinum was chosen as the cytotoxic comparison agent. In a first approach, an MTT test was used to measure the activity of a mitochondrial enzyme, and this gives an estimate of the number of cells. Then, the cytotoxic effects of the compounds according to the invention were characterised in greater detail by analysing the morphology of the nucleus and the activation of caspase 3—two markers of cell apoptosis.

[4] = test system: RDM4 cells; experiment: Chemo-radiotherapeutic association on RDM4 cells (cell counting, propidium iodure apoptosis); type: cell-based, mouse; conditions: for proliferation of non-irradiated RDM4 cells (cell counting): cisplatinum 0.7 μM, ruthenium derivative 10 μM, no irradiation; for proliferation of RDM4 cells, compound plus ionising radiation: 4 Gy rapid neutrons plus compound 11 (10 μM)
Protocol: Cells of this same line are treated with concentrations of 0.7 μM cisplatinum and 15 μM complex 11. 24 hours after the start of the treatment, the cells are irradiated at 4 Gy with rapid neutrons. The effects of the chemo-radiotherapeutic association are then determined by simple cell counting, measuring the concentration of cells in the medium during treatment 24 hrs, 72 hrs and 168 hrs after irradiation.
Evaluation of the effects of a combined “ionising radiation+RDC-11” treatment upon proliferation and survival of the RDM4 murine cells. These cells originate from an AKR mouse lymphoma. The different tests were carried out in vitro, and five independent experiments were carried out.
The radiations used were rapid neutrons originating from the collision of 65 MeV protons on a Beryllium target (produced at the Cyclotron, Louvain la Neuve (LLN) in Belgium). The results of just one of these experiments which is representative of a set of three experiments carried out with this type of radiation are shown.
The RDM4 cells are adjusted to 50,000 cells/ml, in RPMI 1640 culture medium to which 10% foetal calf serum is added. 4 25 cm2 culture flasks are filled with cell suspension, at the rate of 10 ml/flask, i.e. 500,000 cells/flask.
Four flasks are prepared thus, each corresponding to a different experimental group: • Group 1: non-irradiated, untreated cells (Et/NI in FIG. 9) • Group 2: non-irradiated cells, treated with RDC-11 (RDC-11/NI in FIG. 9) • Group 3: irradiated, non-treated cells (Et/4 Gy in FIG. 9) • Group 4: irradiated cells, treated with RDC-11 (RDC-11/4 Gy in FIG. 9)
RDC-11, prepared from an ethanolic solution, is added to the cells (flask 2 and 4) 6 hours before irradiation. An identical volume of ethanol (Et, 66 μl) is added to flasks 1 and 3. The final concentration of RDC-11 is 10 μM, and the medium is not replaced over the 9 days of the experiment.
Flasks 3 and 4 are irradiated with 4 Gy, at ambient temperature, then returned to culture at 37° C.
On the days following irradiation, aliquots of cell suspensions are regularly taken. The number of cells is determined using a Coulter Counter. Other cells are fixed in ethanol, then marked with propidium iodure, in order to determined the percentage apoptosis.

Compound	proliferation of TK6 (p53 wild-type) compared with NH32 (p53-/-) [1]	IC50 ([2]; p53-deficient line)	proteic levels of the active fragment of caspase 3 (Western blot) [3]	proliferation of non-irradiated RDM4 cells (cell counting) [4]	growth inhibition, HL-60 compared with MOLT-4 ([2]; p53-deficient HL-60 vs MOLT-4 with normal p53)	proliferation of RDM4 cells, compound plus ionising radiation [4]	proliferation of RDM4 cells, compound plus ionising radiation ([4]; listed as RDC-11)	effect of the combination with irradiation ([4]; RDC-11 10 μM plus 4 Gy)	percentage of cells in apoptosis (propidium iodure), co-treatment ([4]; RDC-11 10 μM plus 4 Gy, three days after start)
N.N.[Cl][Pt][Cl] [Cisplatinum, reference compound]	more significant effect upon the p53+/+ cells than upon the p53-deficient cells	1000 nM	increasing the proteic levels of the active fragment of caspase 3	inhibits proliferation more effectively than the ruthenium derivative	–	–	–	–	–
[Ru(C6H4-2-C5H4N)(phen)(NCMe)2]PF6 [Compound 11]	can be superposed	–	–	negligible	more significant for HL-60s than for MOLT-4s	cell proliferation practically zero	cell growth is significantly slowed down	supra-additive effect	greater than the sum of treatments taken separately
